{"source": "patent US7511159B2", "about": "“Azetidine ring compounds and drugs comprising the same” (Ono Pharmaceutical Co., Ltd., priority 2003, dated 2009)", "molecular_target": "T1, human EDG-5 (Homo sapiens, UniProt O95136)", "T1 construct": "expressed in transfected cells; host or cells: Chinese hamster ovary (CHO) cells", "T1 sequence (O95136 whole entry)": "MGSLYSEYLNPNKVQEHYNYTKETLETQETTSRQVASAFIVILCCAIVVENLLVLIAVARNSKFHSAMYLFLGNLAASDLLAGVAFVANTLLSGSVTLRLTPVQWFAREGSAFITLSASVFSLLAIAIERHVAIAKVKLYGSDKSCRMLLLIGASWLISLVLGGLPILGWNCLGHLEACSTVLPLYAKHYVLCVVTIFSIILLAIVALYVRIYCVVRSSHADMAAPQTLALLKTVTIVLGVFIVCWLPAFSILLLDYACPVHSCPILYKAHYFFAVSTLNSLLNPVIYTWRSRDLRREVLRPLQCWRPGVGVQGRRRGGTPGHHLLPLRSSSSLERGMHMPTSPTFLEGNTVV", "test": "Evaluation of antagonistic activity for EDG-5 by monitoring the concentration change of intracellular calcium ion", "assay_type": "cell-based", "conditions": "CHO cells overexpressing human EDG-5 gene, S1P 100 nM stimulation, Fura2, read-out: IC50 value (concentration showing an inhibition rate of 50%)", "experimental": "Evaluation of Antagonistic Activity for EDG-5 by Monitoring the Concentration Change of Intracellular Calcium Ion\nChinese hamster ovary (CHO) cells in which human EDG-5 gene was overexpressed were cultured in Ham's F12 medium (GIBCO BRL) containing 10% FBS (fetal bovine serum), penicillin/streptomycin. and blasticidin (5 μg/mL). Thus cultured cells were incubated in a Fura2 (5 μM)-AM solution [Ham's F12 medium containing FBS (10%), HEPES buffer (20 mM, pH7.4), and probenecid (2.5 mM)] at 37° C. for 60 minutes. Then the cells were washed once with a Hanks' solution (2.5 mM) containing probenecid and immersed into the Hanks' solution. A plate was set on a fluorescent drug screening system, and the concentration of intracellular calcium ion was measured for 30 seconds with no stimulation. A solution of a compound (dimethyl sulfoxide (DMSO) solution of 1 nM to 10 μM at the final concentration) to be tested was added. After lapse of 5 minutes, S1P (final concentration: 100 nM) was added, the concentration of intracellular calcium ion before and after the addition of SiP was measured every 3 seconds (excitation wave length: 340 nm and 380 nm; fluorescent wave length: 500 nm). […]"}
{"smiles": "CCN(c1ccccc1)C1CN(C(=O)Nc2cc(C(F)(F)F)cc(C(F)(F)F)c2)C1", "note": "[Example 3(18), N-[3,5-Bis(trifluoromethyl)phenyl]-3-[ethyl(phenyl)amino]azetidine-1-carboxamide]", "values": [{"measurement": "IC50", "result": 950, "unit": "nM"}]}
